Data on twelve molecules can be found in ChEMBL document CHEMBL1201862, “PubChem BioAssay data set” (2004).

Test systems include HOP-62; A549; RPMI-8226; KM12; HCT-116; SF-268; SN12C; SF-295; SK-MEL-28; SNB-19; OVCAR-8; TK-10; 786-0; HOP-92; EKVX; OVCAR-3; CAKI-1; SNB-75; NCI-H522.
Experiment in all cases: growth of human tumour cells (NCI), 48 h

Molecules are shown by their SMILES.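 A five-concentration, 48-hour dose response in 96-well plates underlies each endpoint, interpolated linearly between surrounding concentrations. Here, GI50 denotes the concentration required for 50% inhibition of growth.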 Calls of active or inactive are those of the source. Rule as the data show it: active = GI50 up to about 1.1 µM and inactive = higher. Bounds are passed on as bounds.

Consider `O=C(O)c1cc(Sc2ccc([N+](=O)[O-])c(C(=O)O)c2)ccc1[N+](=O)[O-]`, for which the GI50 in the experiment on HOP-62, in the experiment on A549, with RPMI-8226, with KM12, in the experiment on HCT-116 and in the experiment on SF-268 was > 100 µM (inactive) in each case. For the same molecule, the GI50 with SN12C, in the experiment with SF-295, in the experiment with SK-MEL-28, with SNB-19, in the experiment with OVCAR-8 and with TK-10 was > 100 µM (inactive) in each case. Also, the GI50 in the experiment with 786-0, in the experiment with HOP-92, with EKVX and in the experiment on OVCAR-3 was > 100 µM (inactive) in each case.
In the case of `O=C(NCCCOC(=O)CCCCCCCCC(=O)OCCCNC(=O)NC(=O)c1c[nH]c(=O)[nH]c1=O)NC(=O)c1c[nH]c(=O)[nH]c1=O`, the GI50 with HOP-62, in the experiment with A549, with RPMI-8226, in the experiment with KM12, in the experiment with HCT-116 and in the experiment on SF-268 was > 100 µM (inactive) throughout. The GI50 in the experiment with SN12C, with SF-295, in the experiment with SK-MEL-28, in the experiment on SNB-19, in the experiment with CAKI-1 and with OVCAR-8 was > 100 µM (inactive) each time. Further, the GI50 in the experiment on TK-10, in the experiment with 786-0, with HOP-92, with EKVX and with OVCAR-3 was > 100 µM (inactive) each time.
For the molecule `O=C(Nc1ccc(F)cc1)c1cc2c(cc1Cl)Sc1nccn1S2(=O)=O`, the GI50 in the experiment with HOP-62 is 34.8 µM (inactive); in the experiment on A549, > 100 µM (inactive); in the experiment with SNB-75, 17.8 µM (inactive); in the experiment with KM12, > 100 µM (inactive); in the experiment with HCT-116, 35.6 µM (inactive); in the experiment on SF-268 it was 37.3 µM (inactive). The GI50 with SN12C was 51.2 µM (inactive); in the experiment on SF-295, 28.9 µM (inactive); with SK-MEL-28 it was 88.5 µM (inactive); with NCI-H522 it was 76.9 µM (inactive); in the experiment on SNB-19 it was 40.1 µM (inactive); with CAKI-1, 30.7 µM (inactive). Besides, the GI50 in the experiment on OVCAR-8 was 85.9 µM (inactive); with 786-0 it was 28.2 µM (inactive); in the experiment with EKVX, > 100 µM (inactive); in the experiment with OVCAR-3 it was 84.5 µM (inactive).
Turning to `COc1ccc2c(c1)CCCN1Cc3cc(OC)c(OC)cc3CC21` (stereo unspecified), the GI50 was 60.4 µM (inactive) in the experiment on HOP-62; > 100 µM (inactive) in the experiment on A549; 21.4 µM (inactive) with SNB-75; > 100 µM (inactive) with KM12; 18.2 µM (inactive) in the experiment with HCT-116; 50.9 µM (inactive) in the experiment with SF-268. In addition, the GI50 in the experiment with SN12C is 89.1 µM (inactive); in the experiment on SF-295 it was > 100 µM (inactive); with SK-MEL-28 it was > 100 µM (inactive); in the experiment on NCI-H522, 75.5 µM (inactive); in the experiment with SNB-19, > 100 µM (inactive); in the experiment with CAKI-1, > 100 µM (inactive). Further, the GI50 in the experiment on OVCAR-8 was > 100 µM (inactive); with TK-10 it was > 100 µM (inactive); in the experiment on 786-0, 73.3 µM (inactive); in the experiment with HOP-92 it was 15.9 µM (inactive); with EKVX it was > 100 µM (inactive); in the experiment with OVCAR-3, 82.2 µM (inactive).
As for `Cc1nc(C)c(C(=O)NNC(=O)C[N+](C)(C)C)cc1C(=O)NNC(=O)C[N+](C)(C)C`, the GI50 in the experiment with HOP-62, in the experiment with A549, in the experiment with SNB-75, in the experiment with KM12, in the experiment on HCT-116 and in the experiment with SF-268 was > 100 µM (inactive) throughout. The GI50 in the experiment on SN12C, with SF-295, in the experiment with SK-MEL-28, with SNB-19, with CAKI-1 and in the experiment with OVCAR-8 was > 100 µM (inactive) throughout. For the same molecule, the GI50 with TK-10, with 786-0, with HOP-92, in the experiment with EKVX and with OVCAR-3 was > 100 µM (inactive) each time.
As for `CCOC(=O)c1csc(NC(=O)C(C)N2CCCC2)n1` (stereo unspecified), the GI50 is > 100 µM (inactive) in the experiment on HOP-62; > 100 µM (inactive) in the experiment on A549; > 100 µM (inactive) in the experiment with SNB-75; 19.3 µM (inactive) with RPMI-8226; > 100 µM (inactive) in the experiment on KM12; > 100 µM (inactive) in the experiment with SF-295. Besides, the GI50 with SK-MEL-28, in the experiment with SNB-19, in the experiment on CAKI-1, in the experiment on OVCAR-8, with TK-10 and in the experiment with HOP-92 was > 100 µM (inactive) throughout. Moreover, the GI50 with OVCAR-3 is > 100 µM (inactive).
With `CCOC(=O)C(=C=C=C(c1ccccc1)c1ccccc1)C(=O)OCC`, the GI50 in the experiment with HOP-62 was 18.9 µM (inactive); in the experiment on A549, 25 µM (inactive); in the experiment with SNB-75, 3.87 µM (inactive); with RPMI-8226, 14.1 µM (inactive); in the experiment with KM12 it was 19.6 µM (inactive); in the experiment with HCT-116, 18.5 µM (inactive). In addition, the GI50 with SF-268 is 25.8 µM (inactive); with SN12C it was 20.7 µM (inactive); with SF-295, 16.3 µM (inactive); with SK-MEL-28 it was 17.4 µM (inactive); with SNB-19 it was 21.5 µM (inactive); in the experiment on OVCAR-8, 21.9 µM (inactive). For the same molecule, the GI50 in the experiment with TK-10 was 16 µM (inactive); in the experiment with 786-0, 17.8 µM (inactive); in the experiment on HOP-92 it was 15.1 µM (inactive); in the experiment on EKVX, 26.7 µM (inactive); in the experiment with OVCAR-3, 15.5 µM (inactive).
Turning to `CCCCS(=O)(=O)Nc1ccc(Nc2c3ccccc3nc3ccccc23)c(OC)c1`, the GI50 was 1.86 µM (inactive) in the experiment with HOP-62; 0.232 µM (active) in the experiment on A549; 1.52 µM (inactive) in the experiment with SNB-75; 1.74 µM (inactive) in the experiment on RPMI-8226; 3.45 µM (inactive) with KM12; 1.73 µM (inactive) with HCT-116. Further, the GI50 in the experiment with SF-268 is 2.25 µM (inactive); with SN12C, 0.828 µM (active); in the experiment on SF-295, 0.902 µM (active); in the experiment on SK-MEL-28, 5.74 µM (inactive); in the experiment on NCI-H522, 5.33 µM (inactive); with SNB-19 it was 1.94 µM (inactive). For the same molecule, the GI50 in the experiment on CAKI-1 was 0.574 µM (active); in the experiment with OVCAR-8, 2 µM (inactive); in the experiment on HOP-92, 2.15 µM (inactive); in the experiment with EKVX, 1.91 µM (inactive); with OVCAR-3, 6.98 µM (inactive).
For `CC(=O)O/C=C(/C=C/OC(C)=O)C(C/C=C(\C)C#CC=C(C)C)OC(C)=O` (stereo unspecified), the GI50 in the experiment with HOP-62 was > 100 µM (inactive); in the experiment with A549, > 100 µM (inactive); in the experiment on RPMI-8226, 25.8 µM (inactive); with KM12 it was 23.1 µM (inactive); in the experiment with HCT-116, 18.3 µM (inactive); in the experiment on SF-268, > 100 µM (inactive). In addition, the GI50 in the experiment on SN12C was 36.6 µM (inactive); in the experiment on SF-295, 61.5 µM (inactive); in the experiment with NCI-H522, 25.2 µM (inactive); with SNB-19 it was > 100 µM (inactive); in the experiment with CAKI-1, > 100 µM (inactive); in the experiment with OVCAR-8 it was 37 µM (inactive). Also, the GI50 was > 100 µM (inactive) in the experiment with TK-10; 36.6 µM (inactive) in the experiment with 786-0; 36.6 µM (inactive) in the experiment with HOP-92; 93.5 µM (inactive) in the experiment on EKVX; 24.2 µM (inactive) in the experiment on OVCAR-3.
Regarding `CC(=O)CCC1(c2ccccc2)OC(=O)C(C#N)=C1c1ccccc1` (stereo unspecified), the GI50 with HOP-62 was > 100 µM (inactive); in the experiment on A549 it was > 100 µM (inactive); with SNB-75, 29.4 µM (inactive); in the experiment with RPMI-8226, 39.8 µM (inactive); in the experiment on KM12, > 100 µM (inactive); in the experiment on HCT-116, 47.6 µM (inactive). In addition, the GI50 in the experiment with SF-268 is 70 µM (inactive); in the experiment with SN12C, > 100 µM (inactive); with SF-295, > 100 µM (inactive); in the experiment with SK-MEL-28, > 100 µM (inactive); in the experiment with NCI-H522, 1.53 µM (inactive); with SNB-19, > 100 µM (inactive). Further, the GI50 with OVCAR-8 is > 100 µM (inactive); in the experiment with TK-10, > 100 µM (inactive); in the experiment on 786-0, > 100 µM (inactive); with HOP-92, 50 µM (inactive); in the experiment on EKVX, > 100 µM (inactive); in the experiment with OVCAR-3, 86.3 µM (inactive).
As for `Cc1ccc(P(c2ccc(C)cc2)c2ccc(C)cc2)cc1`, the GI50 in the experiment on A549 was 14.6 µM (inactive); in the experiment on SNB-75 it was 15.2 µM (inactive); in the experiment with RPMI-8226, 6.05 µM (inactive); in the experiment on KM12, 15.8 µM (inactive); with HCT-116, 12.4 µM (inactive); in the experiment on SF-268, 24.3 µM (inactive). In addition, the GI50 with SN12C was 17 µM (inactive); in the experiment with SF-295 it was 21.4 µM (inactive); in the experiment on SK-MEL-28 it was 24.5 µM (inactive); in the experiment on NCI-H522, 11.4 µM (inactive); in the experiment with SNB-19, 61.8 µM (inactive); in the experiment with CAKI-1 it was 23.2 µM (inactive). Besides, the GI50 with OVCAR-8 was 18 µM (inactive); in the experiment with TK-10, 31 µM (inactive); in the experiment with HOP-92 it was 5.66 µM (inactive); with EKVX, 28.3 µM (inactive); in the experiment on OVCAR-3, 15.7 µM (inactive).
For the molecule `CCN1CCC(O)(c2ccc(Oc3ccc(C)cc3)cc2)C(C(=O)c2ccc(Oc3ccc(C)cc3)cc2)C1` (stereo unspecified), the GI50 with HOP-62 is 15.2 µM (inactive); in the experiment with A549, 12.8 µM (inactive); with SNB-75, 7.16 µM (inactive); in the experiment with RPMI-8226 it was 1.48 µM (inactive); in the experiment with KM12 it was 6.37 µM (inactive); with HCT-116, 6.41 µM (inactive). In addition, the GI50 in the experiment with SF-268 is 17 µM (inactive); with SN12C it was 14.8 µM (inactive); with SF-295 it was 5.69 µM (inactive); with SK-MEL-28, 11.2 µM (inactive); with SNB-19, 14.2 µM (inactive); in the experiment with CAKI-1, 12.9 µM (inactive). The GI50 with OVCAR-8 was 13.7 µM (inactive); in the experiment on TK-10, 8.61 µM (inactive); in the experiment on 786-0, 4.99 µM (inactive); in the experiment with HOP-92, 10 µM (inactive); in the experiment on EKVX, 15.6 µM (inactive); in the experiment with OVCAR-3 it was 16 µM (inactive).
